Assay results from PMC10788528 (The Journal of Biological Chemistry, 2023).
Entries after “also recorded” stand apart in the source; their conditions may differ.

Experiments:
Sm.TRPMMCLZ = molecular target: T1, Sm.TRPMMCLZ (Schistosoma mansoni, UniProt A0A5K4FCC0); assay: Ca2+ reporter assay; type: cell-based; conditions: for Activator screen at Sm.TRPMMCLZ: 10 μM; for Antagonism of (S)-MCLZ (1 μM) action at Sm.TRPMMCLZ: 100 μM, preincubation 5 min
T1 sequence (A0A5K4FCC0 1-1380): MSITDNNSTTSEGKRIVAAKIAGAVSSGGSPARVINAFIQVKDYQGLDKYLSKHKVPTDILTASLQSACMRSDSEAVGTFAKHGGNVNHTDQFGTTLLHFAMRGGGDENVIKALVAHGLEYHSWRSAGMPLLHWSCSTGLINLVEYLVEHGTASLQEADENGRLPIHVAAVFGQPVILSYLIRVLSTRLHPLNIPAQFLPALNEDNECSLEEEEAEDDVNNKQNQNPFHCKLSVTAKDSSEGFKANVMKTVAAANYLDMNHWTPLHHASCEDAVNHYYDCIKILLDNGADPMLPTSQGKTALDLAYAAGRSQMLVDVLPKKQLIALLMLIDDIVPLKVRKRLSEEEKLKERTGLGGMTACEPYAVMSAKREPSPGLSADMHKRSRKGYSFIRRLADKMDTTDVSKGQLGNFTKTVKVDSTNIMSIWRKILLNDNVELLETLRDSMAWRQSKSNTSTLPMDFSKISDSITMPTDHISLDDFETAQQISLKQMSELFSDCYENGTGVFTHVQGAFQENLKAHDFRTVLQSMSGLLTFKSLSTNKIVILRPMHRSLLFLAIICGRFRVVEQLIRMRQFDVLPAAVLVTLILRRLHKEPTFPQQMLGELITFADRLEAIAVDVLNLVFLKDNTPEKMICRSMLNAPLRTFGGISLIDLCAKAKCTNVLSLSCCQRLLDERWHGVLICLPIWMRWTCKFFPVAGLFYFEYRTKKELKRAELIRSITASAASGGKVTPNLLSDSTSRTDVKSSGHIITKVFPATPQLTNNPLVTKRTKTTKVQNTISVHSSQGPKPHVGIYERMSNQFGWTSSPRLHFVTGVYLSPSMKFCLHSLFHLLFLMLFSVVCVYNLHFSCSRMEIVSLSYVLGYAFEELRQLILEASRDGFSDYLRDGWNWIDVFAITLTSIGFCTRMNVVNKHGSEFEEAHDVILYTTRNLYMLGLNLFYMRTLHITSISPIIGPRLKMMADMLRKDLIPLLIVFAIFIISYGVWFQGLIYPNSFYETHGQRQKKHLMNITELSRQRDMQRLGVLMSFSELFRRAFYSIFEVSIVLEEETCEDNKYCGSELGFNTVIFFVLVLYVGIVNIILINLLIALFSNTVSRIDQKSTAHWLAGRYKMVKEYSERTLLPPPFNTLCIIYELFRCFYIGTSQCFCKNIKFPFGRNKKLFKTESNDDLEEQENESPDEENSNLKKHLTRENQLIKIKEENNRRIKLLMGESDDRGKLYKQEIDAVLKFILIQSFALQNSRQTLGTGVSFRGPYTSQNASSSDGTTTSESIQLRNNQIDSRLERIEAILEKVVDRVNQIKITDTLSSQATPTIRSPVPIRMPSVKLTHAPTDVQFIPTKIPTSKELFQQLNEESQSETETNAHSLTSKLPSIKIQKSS

S. mansoni male worms = assay: Acute contraction of S. mansoni male worms by benzodiazepines; type: cell-based, Schistosoma mansoni; conditions: 3 μM, 20 min
Sm.TRPMPZQ = Sm.TRPMPZQ (Schistosoma mansoni, UniProt A0A5K4F0X5); assay: Ca2+ reporter assay; type: cell-based; conditions: Fig. S2 concentration-response

Row | Structure (SMILES) | Activator screen at Sm.TRPMMCLZ (Sm.TRPMMCLZ) | Antagonism of (S)-MCLZ (1 μM) action at Sm.TRPMMCLZ (Sm.TRPMMCLZ) | also measured
1 | C[N+](C)(C)CCOC(N)=O [carbachol] | inactive | – | –
2 | CN1C(=O)CN=C(c2ccccc2)c2cc(Cl)ccc21 [diazepam] | – | – | Acute contraction / paralysis of S. mansoni male worms (S. mansoni male worms): did not evoke worm contraction
3 | NCCc1ccc(O)c(O)c1 [dopamine] | inactive | – | –
4 | CCOC(=O)c1ncn2c1CN(C)C(=O)c1cc(F)ccc1-2 [flumazenil] | – | weakly antagonized | –
5 | CN1C(=O)CN=C(c2ccccc2F)c2cc([N+](=O)[O-])ccc21 [flunitrazepam] | – | – | Acute contraction / paralysis of S. mansoni male worms (S. mansoni male worms): did not evoke worm contraction
6 | CCN(CC)CCN1C(=O)CN=C(c2ccccc2F)c2cc(Cl)ccc21 [flurazepam] | – | – | Acute contraction / paralysis of S. mansoni male worms (S. mansoni male worms): did not evoke worm contraction
7 | O=C1NC(c2cccc([N+](=O)[O-])c2)=CCN1c1ccccc1O [icilin] | inactive | – | –
8 | CC1CCC(C(C)C)C(O)C1 (stereo not shown) [menthol] | inactive | – | –
9 | COc1ccc(CCN(C)CCCC(C#N)(c2cc(OC)c(OC)c(OC)c2)C(C)C)cc1OC (stereo not shown) [methoxyverapamil] | – | weakly antagonized | –
10 | COC(=O)C1=C(C)NC(C)=C(C(=O)OCCN(C)Cc2ccccc2)C1c1cccc([N+](=O)[O-])c1 (stereo not shown) [nicardipine] | – | weakly antagonized; also recorded: weakly attenuated | –
11 | COC(=O)C1=C(C)NC(C)=C(C(=O)OC)C1c1ccccc1[N+](=O)[O-] [nifedipine] | – | weakly antagonized; also recorded: weakly attenuated | –
12 | COCCOC(=O)C1=C(C)NC(C)=C(C(=O)OC(C)C)C1c1cccc([N+](=O)[O-])c1 (stereo not shown) [nimodipine] | activated | – | Activation of Sm.TRPMPZQ by Cav channel ligands (Sm.TRPMPZQ): but not Sm.TRPMPZQ
